Measurements reported in ChEMBL document CHEMBL4665865, “New series of isoxazole derivatives targeting EGFR-TK: Synthesis, molecular modeling and antitumor evaluation” (Bioorg Med Chem, 2020).

Key:
HepG2 [1] = experiment: Induction of apoptosis in human HepG2 cells assessed as increase in caspase-3 level after 24 hrs by Western blot analysis relative to untreated control; type: functional
Tubulin (Homo sapiens) = Tubulin (Homo sapiens) (UniProt P68371+Q9H4B7+P0DPH7+P68366+Q13509+Q71U36+P04350+Q3ZCM7+P07437+P68363+Q9BQE3+Q6PEY2+Q13885+Q9BVA1+Q9BUF5); experiment: Inhibition of tubulin polymerization (unknown origin) at 10 uM relative to control; type: protein-complex assay
HCT-116 [2] = experiment: Induction of cell cycle arrest in human HCT-116 cells assessed as aggregates at antiproliferative IC50 by PI staining based flow cytometric analysis (reference value: 1.61%); type: functional; settings: time 24 hrs
WI-38 = experiment: Cytotoxicity against human WI38 cells assessed as reduction in cell viability by MTT assay; type: cell-based
MCF7 [3] = experiment: Induction of apoptosis in human MCF7 cells assessed as late apoptotic cells at antiproliferative IC50 incubated for 24 hrs by annexin V FITC and propidium iodide staining based flow cytometry (reference value: 0.28 %); type: functional
HCT-116 [4] = experiment: Antitumor activity against human HCT-116 cells assessed as inhibition of cell viability by MTT assay; type: functional, cell-based
MCF7 [5] = experiment: Induction of apoptosis in human MCF7 cells assessed as necrotic cells at antiproliferative IC50 incubated for 24 hrs by annexin V FITC and propidium iodide staining based flow cytometry (reference value: 1.11 %); type: functional
HepG2 [6] = experiment: Induction of apoptosis in human HepG2 cells assessed as necrotic cells at antiproliferative IC50 incubated for 24 hrs by annexin V FITC and propidium iodide staining based flow cytometry (reference value: 0.52 %); type: functional
HepG2 [7] = experiment: Induction of cell cycle arrest in human HepG2 cells assessed as accumulation of cells at Pre-G1 phase at antiproliferative IC50 by PI staining based flow cytometric analysis (reference value: 1.44%); type: functional
HCT-116 [8] = experiment: Induction of apoptosis in human HCT-116 cells assessed as increase in caspase-3 level after 24 hrs by Western blot analysis relative to untreated control; type: functional
DNA topoisomerase 2-beta = DNA topoisomerase 2-beta (Homo sapiens, UniProt Q02880); experiment: Inhibition of Topoisomerase II beta (unknown origin) relative to control
Chain of DNA topoisomerase 2-beta (Q02880 whole entry): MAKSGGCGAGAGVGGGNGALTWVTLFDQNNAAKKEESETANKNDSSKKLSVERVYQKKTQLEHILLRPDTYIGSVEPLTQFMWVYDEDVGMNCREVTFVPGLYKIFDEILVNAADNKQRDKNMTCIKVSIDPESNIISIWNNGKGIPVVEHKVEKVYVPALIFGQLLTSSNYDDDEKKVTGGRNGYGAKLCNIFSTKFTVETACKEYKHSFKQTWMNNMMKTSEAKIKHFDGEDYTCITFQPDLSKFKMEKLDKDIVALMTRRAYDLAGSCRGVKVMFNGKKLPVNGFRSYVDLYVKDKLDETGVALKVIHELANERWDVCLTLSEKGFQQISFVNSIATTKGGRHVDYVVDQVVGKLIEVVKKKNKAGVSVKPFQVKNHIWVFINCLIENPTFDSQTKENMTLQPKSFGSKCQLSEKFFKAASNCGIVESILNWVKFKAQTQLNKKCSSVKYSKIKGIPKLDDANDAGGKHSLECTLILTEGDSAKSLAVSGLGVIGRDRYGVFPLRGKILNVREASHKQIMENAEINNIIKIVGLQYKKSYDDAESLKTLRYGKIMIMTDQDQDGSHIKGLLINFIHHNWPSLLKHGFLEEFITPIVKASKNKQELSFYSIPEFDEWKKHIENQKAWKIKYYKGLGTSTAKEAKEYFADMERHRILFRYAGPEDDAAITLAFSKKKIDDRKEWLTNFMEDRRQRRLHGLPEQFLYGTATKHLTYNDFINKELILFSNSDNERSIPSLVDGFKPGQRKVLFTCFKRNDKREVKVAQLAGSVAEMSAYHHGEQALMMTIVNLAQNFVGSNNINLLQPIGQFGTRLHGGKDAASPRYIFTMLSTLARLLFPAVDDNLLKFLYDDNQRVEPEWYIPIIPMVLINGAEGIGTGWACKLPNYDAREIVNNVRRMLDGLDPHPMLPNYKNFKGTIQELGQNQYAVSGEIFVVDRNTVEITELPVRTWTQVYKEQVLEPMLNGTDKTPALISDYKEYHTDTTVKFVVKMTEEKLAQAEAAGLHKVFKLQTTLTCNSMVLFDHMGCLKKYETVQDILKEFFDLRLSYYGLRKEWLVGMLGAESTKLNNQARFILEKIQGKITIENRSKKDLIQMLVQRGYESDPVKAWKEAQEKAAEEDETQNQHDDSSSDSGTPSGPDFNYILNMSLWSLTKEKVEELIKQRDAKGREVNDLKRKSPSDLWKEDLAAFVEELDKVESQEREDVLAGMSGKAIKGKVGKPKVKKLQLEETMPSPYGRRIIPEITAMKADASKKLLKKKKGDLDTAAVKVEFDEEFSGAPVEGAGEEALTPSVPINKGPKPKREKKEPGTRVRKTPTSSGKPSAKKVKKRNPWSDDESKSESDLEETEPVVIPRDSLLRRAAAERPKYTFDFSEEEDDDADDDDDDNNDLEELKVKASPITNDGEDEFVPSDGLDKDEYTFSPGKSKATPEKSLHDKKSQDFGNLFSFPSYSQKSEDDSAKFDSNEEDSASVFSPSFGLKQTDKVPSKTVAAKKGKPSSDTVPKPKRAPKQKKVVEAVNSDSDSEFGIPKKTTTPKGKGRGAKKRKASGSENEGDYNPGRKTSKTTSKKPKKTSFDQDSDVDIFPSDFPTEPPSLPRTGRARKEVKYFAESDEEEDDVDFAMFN

HepG2 [9] = experiment: Induction of cell cycle arrest in human HepG2 cells assessed as accumulation of cells at S phase at antiproliferative IC50 by PI staining based flow cytometric analysis (reference value: 34.03%); type: functional
WISH = experiment: Cytotoxicity against human WISH cells assessed as reduction in cell viability by MTT assay; type: cell-based
MCF7 [10] = experiment: Induction of cell cycle arrest in human MCF7 cells assessed as cell debris at antiproliferative IC50 by PI staining based flow cytometric analysis (reference value: 1.63%); type: functional; settings: time 24 hrs
HepG2 [11] = experiment: Induction of apoptosis in human HepG2 cells assessed as early apoptotic cells at antiproliferative IC50 incubated for 24 hrs by annexin V FITC and propidium iodide staining based flow cytometry (reference value: 0.61 %); type: functional
HepG2 [12] = experiment: Induction of apoptosis in human HepG2 cells assessed as decrease in Bcl-2 protein expression by Western blot analysis relative to untreated control; type: functional
HepG2 [13] = experiment: Induction of cell cycle arrest in human HepG2 cells assessed as accumulation of cells at G2/M phase at antiproliferative IC50 by PI staining based flow cytometric analysis (reference value: 14.09%); type: functional
HCT-116 [14] = experiment: Induction of apoptosis in human HCT-116 cells assessed as early apoptotic cells at antiproliferative IC50 incubated for 24 hrs by annexin V FITC and propidium iodide staining based flow cytometry (reference value: 0.41 %); type: functional
[15] = biological target: T1, Casein kinase II subunit alpha (Homo sapiens, UniProt P68400); experiment: Inhibition of CK2 alpha (unknown origin) relative to control
Target sequence in this assay (P68400 whole entry): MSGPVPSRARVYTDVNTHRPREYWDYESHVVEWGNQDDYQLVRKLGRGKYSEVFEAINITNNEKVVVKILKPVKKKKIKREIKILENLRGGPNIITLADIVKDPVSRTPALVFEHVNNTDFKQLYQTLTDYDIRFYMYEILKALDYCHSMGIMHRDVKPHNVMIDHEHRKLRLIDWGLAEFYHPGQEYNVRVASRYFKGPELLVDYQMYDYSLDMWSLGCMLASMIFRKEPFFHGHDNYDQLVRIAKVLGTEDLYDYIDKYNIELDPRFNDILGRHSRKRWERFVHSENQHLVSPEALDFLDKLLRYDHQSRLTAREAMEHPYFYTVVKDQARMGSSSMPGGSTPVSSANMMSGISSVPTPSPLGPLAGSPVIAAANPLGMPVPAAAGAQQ

MCF7 [16] = experiment: Induction of cell cycle arrest in human MCF7 cells assessed as accumulation of cells at Pre-G1 phase at antiproliferative IC50 by PI staining based flow cytometric analysis (reference value: 1.78%); type: functional
MCF7 [17] = experiment: Antitumor activity against human MCF7 cells assessed as inhibition of cell viability by MTT assay; type: functional, cell-based
MCF7 [18] = experiment: Induction of apoptosis in human MCF-7 cells assessed as increase in caspase-9 level after 24 hrs by Western blot analysis relative to untreated control; type: functional
MCF7 [19] = experiment: Induction of cell cycle arrest in human MCF7 cells assessed as accumulation of cells at G2/M phase at antiproliferative IC50 by PI staining based flow cytometric analysis (reference value: 10.95%); type: functional
HCT-116 [20] = experiment: Induction of cell cycle arrest in human HCT-116 cells assessed as accumulation of cells at S phase at antiproliferative IC50 by PI staining based flow cytometric analysis (reference value: 35.61%); type: functional
HCT-116 [21] = experiment: Induction of apoptosis in human HCT-116 cells assessed as increase in Bax protein expression by Western blot analysis relative to untreated control; type: functional
MCF7 [22] = experiment: Induction of apoptosis in human MCF-7 cells assessed as decrease in Bcl-2 protein expression by Western blot analysis relative to untreated control; type: functional
[23] = biological target: T1, Casein kinase II subunit alpha; experiment: Inhibition of CK2 alpha (unknown origin) at 10 uM relative to control
Target sequence in this assay (P68400 whole entry, looked up): as the sequence (P68400 whole entry) above

HCT-116 [24] = experiment: Induction of cell cycle arrest in human HCT-116 cells assessed as accumulation of cells at Pre-G1 phase at antiproliferative IC50 by PI staining based flow cytometric analysis (reference value: 1.19%); type: functional
HCT-116 [25] = experiment: Induction of apoptosis in human HCT-116 cells assessed as decrease in Bcl-2 protein expression by Western blot analysis relative to untreated control; type: functional
HCT-116 [26] = experiment: Induction of apoptosis in human HCT-116 cells assessed as necrotic cells at antiproliferative IC50 incubated for 24 hrs by annexin V FITC and propidium iodide staining based flow cytometry (reference value: 0.59 %); type: functional
HepG2 [27] = experiment: Induction of cell cycle arrest in human HepG2 cells assessed as cell debris at antiproliferative IC50 by PI staining based flow cytometric analysis (reference value: 1.52%); type: functional; settings: time 24 hrs
HepG2 [28] = experiment: Induction of apoptosis in human HepG2 cells assessed as late apoptotic cells at antiproliferative IC50 incubated for 24 hrs by annexin V FITC and propidium iodide staining based flow cytometry (reference value: 0.31 %); type: functional
HepG2 [29] = experiment: Induction of cell cycle arrest in human HepG2 cells assessed as aggregates at antiproliferative IC50 by PI staining based flow cytometric analysis (reference value: 1.52%); type: functional; settings: time 24 hrs
HepG2 [30] = experiment: Induction of cell cycle arrest in human HepG2 cells assessed as accumulation of cells at G0/G1 phase at antiproliferative IC50 by PI staining based flow cytometric analysis (reference value: 51.88%); type: functional
Tubulin = experiment: Inhibition of tubulin polymerization (unknown origin) relative to control; type: protein-complex assay, Homo sapiens
HCT-116 [31] = experiment: Induction of apoptosis in human HCT-116 cells assessed as late apoptotic cells at antiproliferative IC50 incubated for 24 hrs by annexin V FITC and propidium iodide staining based flow cytometry (reference value: 0.19 %); type: functional
HCT-116 [32] = experiment: Induction of cell cycle arrest in human HCT-116 cells assessed as accumulation of cells at G2/M phase at antiproliferative IC50 by PI staining based flow cytometric analysis (reference value: 15.87%); type: functional

inhibition (Tubulin (Homo sapiens)): 57.7% | IC50 (HCT-116 [4]): 7.72 µM | IC50 (DNA topoisomerase 2-beta): 0.13 µM | IC50 [15]: 0.171 µM | IC50 (MCF7 [17]): 6.38 µM | inhibition [23]: 76.3% | IC50 (Tubulin): 3.61 µM
SMILES: Cc1cc(NC2=NC(=O)/C(=C\c3c4ccccc4cc4ccccc34)S2)no1
fold change (FC) (HepG2 [1]): 5.4 | Activity (HCT-116 [2]): 1.74% | IC50 (WI-38): 38.6 µM | Activity (MCF7 [3]): 7.82% | Activity (MCF7 [5]): 2.31% | Activity (HepG2 [6]): 1.77% | Activity (HepG2 [7]): 13.3% | fold change (FC) (HCT-116 [8]): 14.2 | Activity (HepG2 [9]): 24.96% | IC50 (WISH): 53.2 µM | Activity (MCF7 [10]): 2.08% | Activity (HepG2 [11]): 3.51% | fold change (FC) (HepG2 [12]): 0.56 | Activity (HepG2 [13]): 36.93% | Activity (HCT-116 [14]): 5.23% | Activity (MCF7 [16]): 16.41% | fold change (FC) (MCF7 [18]): 4.7 | Activity (MCF7 [19]): 29.3% | Activity (HCT-116 [20]): 27.44% | fold change (FC) (HCT-116 [21]): 6.9 | fold change (FC) (MCF7 [22]): 0.62 | Activity (HCT-116 [24]): 22.69% | fold change (FC) (HCT-116 [25]): 0.64 | Activity (HCT-116 [26]): 2.27% | Activity (HepG2 [27]): 2.18% | Activity (HepG2 [28]): 8% | Activity (HepG2 [29]): 1.55% | Activity (HepG2 [30]): 38.11% | Activity (HCT-116 [31]): 15.19% | Activity (HCT-116 [32]): 42.89%
